Measurements: ChEMBL document CHEMBL1201862, “PubChem BioAssay data set” (2004)
Calls of active or inactive are those of the source.

Assays:
[1] = biological target: Polyadenylate-binding protein 1 (Homo sapiens, UniProt P11940); assay: PABP inhibition in translation initiation, SAR follow-up (AID 435018); assay type: functional
[2] = biological target: Eukaryotic translation initiation factor 4H (Homo sapiens, UniProt Q15056); assay: inhibitors of translation initiation factor eIF4H – SAR follow-up (AID 435011); assay type: functional
[3] = test system: HEK293; assay: cells; conditions: Homo sapiens;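 also: cells exposed to compound for 14 hours overnight before viability readout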
[4] = biological target: Nucleotide-binding oligomerization domain-containing protein 2 (Homo sapiens, UniProt Q9HC29); assay: PubChem AID 2334; assay type: functional
Chain of Nucleotide-binding oligomerization domain-containing protein 2 (Q9HC29 whole entry, the tested form may be a part): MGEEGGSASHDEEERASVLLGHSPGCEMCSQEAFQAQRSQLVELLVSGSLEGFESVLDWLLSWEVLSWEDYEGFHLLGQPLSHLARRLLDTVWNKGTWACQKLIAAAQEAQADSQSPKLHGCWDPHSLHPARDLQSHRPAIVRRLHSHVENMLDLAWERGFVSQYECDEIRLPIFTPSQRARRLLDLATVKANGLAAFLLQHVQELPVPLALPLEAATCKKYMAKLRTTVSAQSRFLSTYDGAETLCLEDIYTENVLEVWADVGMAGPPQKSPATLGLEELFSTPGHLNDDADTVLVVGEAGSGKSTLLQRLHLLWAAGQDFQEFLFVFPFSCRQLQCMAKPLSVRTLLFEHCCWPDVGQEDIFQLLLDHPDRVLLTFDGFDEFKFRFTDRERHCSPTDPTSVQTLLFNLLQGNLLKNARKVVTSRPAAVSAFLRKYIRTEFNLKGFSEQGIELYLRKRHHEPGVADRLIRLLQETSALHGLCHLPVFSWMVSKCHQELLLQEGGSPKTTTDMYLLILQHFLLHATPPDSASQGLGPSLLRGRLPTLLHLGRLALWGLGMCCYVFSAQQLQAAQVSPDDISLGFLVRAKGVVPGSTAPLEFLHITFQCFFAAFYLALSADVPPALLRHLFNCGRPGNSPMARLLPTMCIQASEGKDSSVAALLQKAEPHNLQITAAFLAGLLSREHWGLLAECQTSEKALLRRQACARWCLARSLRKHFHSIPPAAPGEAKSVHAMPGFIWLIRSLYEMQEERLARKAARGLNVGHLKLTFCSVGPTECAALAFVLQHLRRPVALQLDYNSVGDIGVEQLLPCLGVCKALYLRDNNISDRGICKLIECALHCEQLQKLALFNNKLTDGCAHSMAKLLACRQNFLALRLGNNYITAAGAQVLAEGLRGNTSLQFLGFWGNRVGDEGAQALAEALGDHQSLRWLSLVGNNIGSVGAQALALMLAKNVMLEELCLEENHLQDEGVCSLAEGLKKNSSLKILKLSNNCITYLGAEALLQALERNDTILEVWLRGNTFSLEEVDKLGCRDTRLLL

[5] = biological target: Tumor necrosis factor (Homo sapiens, UniProt P01375); assay: analog potency on TNFa NF-kB signaling – cell-based, revised, SAR follow-up (AID 2337); assay type: functional
Chain of Tumor necrosis factor (P01375 whole entry, the tested form may be a part): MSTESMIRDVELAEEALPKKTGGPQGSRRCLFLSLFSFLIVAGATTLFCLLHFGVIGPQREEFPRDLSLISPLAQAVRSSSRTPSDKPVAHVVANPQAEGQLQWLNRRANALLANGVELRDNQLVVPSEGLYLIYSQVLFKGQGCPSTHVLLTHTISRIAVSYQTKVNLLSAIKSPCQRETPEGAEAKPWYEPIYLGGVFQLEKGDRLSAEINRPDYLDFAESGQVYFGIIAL

[6] = biological target: T1, Nucleotide-binding oligomerization domain-containing protein 1 (Homo sapiens, UniProt Q9Y239); assay: blockers of NOD1 pathway activity – revised, SAR follow-up (AID 2333); assay type: functional
T1 sequence (Q9Y239 whole entry): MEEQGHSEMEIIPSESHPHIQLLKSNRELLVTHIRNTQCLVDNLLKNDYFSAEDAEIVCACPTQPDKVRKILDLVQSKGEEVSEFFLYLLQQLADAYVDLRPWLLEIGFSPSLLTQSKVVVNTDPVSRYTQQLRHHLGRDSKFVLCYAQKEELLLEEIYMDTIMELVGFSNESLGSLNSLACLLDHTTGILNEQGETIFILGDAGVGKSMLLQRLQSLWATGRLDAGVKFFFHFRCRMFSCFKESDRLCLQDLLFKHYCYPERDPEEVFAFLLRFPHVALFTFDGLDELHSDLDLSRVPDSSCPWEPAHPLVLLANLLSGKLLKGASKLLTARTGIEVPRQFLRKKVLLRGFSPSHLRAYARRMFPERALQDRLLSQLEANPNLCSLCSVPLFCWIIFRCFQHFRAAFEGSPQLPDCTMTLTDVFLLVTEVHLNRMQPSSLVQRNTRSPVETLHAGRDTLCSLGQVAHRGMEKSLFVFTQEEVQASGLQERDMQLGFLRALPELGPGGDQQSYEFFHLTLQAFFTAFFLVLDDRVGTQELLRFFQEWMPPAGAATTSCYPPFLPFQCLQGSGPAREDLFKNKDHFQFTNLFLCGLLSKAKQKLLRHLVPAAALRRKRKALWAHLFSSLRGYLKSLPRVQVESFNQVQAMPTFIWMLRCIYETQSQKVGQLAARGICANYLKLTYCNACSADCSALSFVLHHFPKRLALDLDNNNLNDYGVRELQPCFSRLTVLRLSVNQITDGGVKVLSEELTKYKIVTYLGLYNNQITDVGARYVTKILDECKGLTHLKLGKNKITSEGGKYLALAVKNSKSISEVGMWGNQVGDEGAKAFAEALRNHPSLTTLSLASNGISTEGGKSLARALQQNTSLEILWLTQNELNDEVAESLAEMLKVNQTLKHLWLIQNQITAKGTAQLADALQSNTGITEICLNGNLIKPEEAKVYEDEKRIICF

[7] = Luminescence Cell-Based Dose Retest to Confirm Inhibitors of Cancer Stem Cells. [Related pubchem assays (depositor defined):AID2717, AID2721]; assay type: functional; conditions: Homo sapiens
[8] = biological target: T2, Ubiquitin-conjugating enzyme E2 N (Homo sapiens, UniProt P61088); assay type: functional;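 also: Dose-response confirmation in a TR-FRET assay detecting UBC13-driven polyubiquitin chain formation, inhibition measured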
T2 sequence (P61088 whole entry): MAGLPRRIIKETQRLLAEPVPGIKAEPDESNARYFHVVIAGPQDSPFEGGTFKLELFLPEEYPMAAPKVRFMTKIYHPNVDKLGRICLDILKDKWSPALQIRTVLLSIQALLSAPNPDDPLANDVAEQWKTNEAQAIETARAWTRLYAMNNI

[9] = biological target: Integrin alpha-4 (Homo sapiens, UniProt P13612); assay: allosteric modulators of alpha4 integrin VLA-4 – cell-based, LIBS antibody binding, flow cytometry, SAR follow-up (AID 488791); assay type: functional
Chain of Integrin alpha-4 (P13612 whole entry, the tested form may be a part): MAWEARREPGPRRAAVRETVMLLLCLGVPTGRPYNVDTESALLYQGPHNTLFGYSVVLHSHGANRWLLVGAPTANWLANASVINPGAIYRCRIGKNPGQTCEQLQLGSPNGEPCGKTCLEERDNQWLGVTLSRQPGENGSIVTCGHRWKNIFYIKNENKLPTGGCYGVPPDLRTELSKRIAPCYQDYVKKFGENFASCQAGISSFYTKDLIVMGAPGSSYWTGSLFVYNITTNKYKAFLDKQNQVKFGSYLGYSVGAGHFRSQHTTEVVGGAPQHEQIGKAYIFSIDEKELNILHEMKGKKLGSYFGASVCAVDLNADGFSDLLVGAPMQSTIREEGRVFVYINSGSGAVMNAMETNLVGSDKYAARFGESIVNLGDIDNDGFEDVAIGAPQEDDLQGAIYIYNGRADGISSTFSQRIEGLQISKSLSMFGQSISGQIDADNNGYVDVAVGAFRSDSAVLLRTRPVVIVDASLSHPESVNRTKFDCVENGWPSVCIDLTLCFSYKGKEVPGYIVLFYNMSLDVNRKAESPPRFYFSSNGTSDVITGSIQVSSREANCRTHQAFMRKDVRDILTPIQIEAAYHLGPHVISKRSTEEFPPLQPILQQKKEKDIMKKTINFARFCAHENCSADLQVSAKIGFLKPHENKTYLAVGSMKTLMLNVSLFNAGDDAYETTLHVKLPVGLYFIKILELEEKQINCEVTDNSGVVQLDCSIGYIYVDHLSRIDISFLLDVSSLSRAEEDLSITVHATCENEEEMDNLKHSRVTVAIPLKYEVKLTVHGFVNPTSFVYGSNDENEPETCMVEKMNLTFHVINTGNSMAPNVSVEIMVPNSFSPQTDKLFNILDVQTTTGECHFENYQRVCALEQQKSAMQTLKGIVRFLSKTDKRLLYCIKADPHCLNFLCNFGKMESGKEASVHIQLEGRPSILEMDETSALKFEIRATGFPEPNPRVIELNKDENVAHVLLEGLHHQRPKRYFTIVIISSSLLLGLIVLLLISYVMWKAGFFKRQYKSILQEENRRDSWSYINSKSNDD

[10] = biological target: T3, RNA-binding protein pos-1 (Caenorhabditis elegans, UniProt G5EF15); assay: disruptors of C. elegans POS-1 RNA interaction – biochemical, fluorescence polarization, dose response (AID 1964);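 also: purified POS-1 fused to maltose binding protein made in E. coli; potency of compounds blocking POS-1 binding to fluorescent RNA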
T3 sequence (G5EF15 whole entry): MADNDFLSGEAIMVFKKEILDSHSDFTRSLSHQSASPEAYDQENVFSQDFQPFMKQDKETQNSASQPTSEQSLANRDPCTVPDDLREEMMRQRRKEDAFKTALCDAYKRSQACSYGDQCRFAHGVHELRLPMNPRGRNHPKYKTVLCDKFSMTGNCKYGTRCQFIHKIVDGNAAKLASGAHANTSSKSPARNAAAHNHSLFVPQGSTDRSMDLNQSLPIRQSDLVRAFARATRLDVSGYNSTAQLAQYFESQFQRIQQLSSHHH

[11] = biological target: T4, Zinc finger protein mex-5 (Caenorhabditis elegans, UniProt Q9XUB2); assay: potency of MEX-5 RNA-binding blockers – biochemical, C. elegans, fluorescence polarization, dose response (AID 1960)
T4 sequence (Q9XUB2 whole entry): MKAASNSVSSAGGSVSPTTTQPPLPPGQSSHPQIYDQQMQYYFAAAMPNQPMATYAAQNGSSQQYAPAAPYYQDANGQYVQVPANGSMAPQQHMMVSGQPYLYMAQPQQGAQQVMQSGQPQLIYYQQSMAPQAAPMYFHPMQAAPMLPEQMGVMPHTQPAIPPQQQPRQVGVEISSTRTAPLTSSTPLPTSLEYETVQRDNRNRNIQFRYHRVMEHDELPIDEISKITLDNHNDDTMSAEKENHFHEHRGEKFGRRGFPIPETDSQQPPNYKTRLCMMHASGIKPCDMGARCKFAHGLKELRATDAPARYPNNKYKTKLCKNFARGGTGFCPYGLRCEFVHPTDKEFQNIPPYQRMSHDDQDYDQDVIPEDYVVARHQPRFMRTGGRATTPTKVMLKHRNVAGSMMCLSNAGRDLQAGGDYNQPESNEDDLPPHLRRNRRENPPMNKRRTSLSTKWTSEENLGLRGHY

[12] = biological target: T5, Insulin-degrading enzyme (Homo sapiens, UniProt P14735); assay: Dose Response: Fluorescence polarization-based cell-based high throughput dose response assay for inhibitors of insulin-degrading enzyme (IDE). [Related pubchem assays: 434962 (Primary screen (IDE inhibitors in singlicate)), 449730 (Counterscreen (Cytotoxicity in triplicate)), 435028 (Confirmation (IDE inhibitors in triplicate)), 434984 (Summary …; assay type: functional
T5 sequence (P14735 whole entry): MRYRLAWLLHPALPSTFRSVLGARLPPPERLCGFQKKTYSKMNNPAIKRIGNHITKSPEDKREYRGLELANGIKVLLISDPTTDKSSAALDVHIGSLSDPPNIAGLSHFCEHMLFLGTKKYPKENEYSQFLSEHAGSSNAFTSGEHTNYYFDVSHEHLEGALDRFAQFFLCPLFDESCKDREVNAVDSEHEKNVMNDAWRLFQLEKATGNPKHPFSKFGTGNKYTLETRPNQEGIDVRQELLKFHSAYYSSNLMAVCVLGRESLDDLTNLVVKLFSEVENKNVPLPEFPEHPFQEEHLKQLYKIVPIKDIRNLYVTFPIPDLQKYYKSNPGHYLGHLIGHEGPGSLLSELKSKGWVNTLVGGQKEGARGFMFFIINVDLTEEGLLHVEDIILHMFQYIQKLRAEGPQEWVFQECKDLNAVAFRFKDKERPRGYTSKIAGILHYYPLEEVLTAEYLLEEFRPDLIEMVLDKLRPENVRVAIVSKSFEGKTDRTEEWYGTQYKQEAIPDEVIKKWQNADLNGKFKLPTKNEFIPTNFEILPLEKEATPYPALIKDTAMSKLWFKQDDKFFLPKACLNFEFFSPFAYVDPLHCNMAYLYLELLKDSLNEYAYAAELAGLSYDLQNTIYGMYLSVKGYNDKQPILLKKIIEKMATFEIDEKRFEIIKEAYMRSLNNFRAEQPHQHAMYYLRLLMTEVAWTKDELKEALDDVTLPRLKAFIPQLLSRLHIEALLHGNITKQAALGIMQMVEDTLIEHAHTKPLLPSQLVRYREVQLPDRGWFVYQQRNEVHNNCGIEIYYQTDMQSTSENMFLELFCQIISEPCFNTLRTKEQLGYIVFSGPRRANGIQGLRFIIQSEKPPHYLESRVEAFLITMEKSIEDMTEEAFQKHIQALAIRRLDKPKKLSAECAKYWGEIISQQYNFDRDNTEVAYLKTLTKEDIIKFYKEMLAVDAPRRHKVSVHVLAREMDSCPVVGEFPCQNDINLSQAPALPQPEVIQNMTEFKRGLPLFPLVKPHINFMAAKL

[13] = Counterscreen for IDE inhibitors: Luminescence-based cell-based high throughput dose response assay to identify compounds that are cytotoxic to HEK cells. [Related pubchem assays: 434962 (Primary screen (IDE inhibitors in singlicate)), 449730 (Counterscreen (Cytotoxicity in triplicate)), 435028 (Confirmation (IDE inhibitors in triplicate)) …; assay type: functional; conditions: HEK293
[14] = biological target: Neurotensin receptor type 1 (Homo sapiens, UniProt P30989); assay type: functional;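 also: Image-based confirmatory dose-response assay measuring agonist activity at NTR1; NTR1-expressing U2OS osteosarcoma cells imaged for beta-arrestin GFP spot formation; agonist potency where compounds increase beta-arrestin recruitment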
Chain of Neurotensin receptor type 1 (P30989 whole entry): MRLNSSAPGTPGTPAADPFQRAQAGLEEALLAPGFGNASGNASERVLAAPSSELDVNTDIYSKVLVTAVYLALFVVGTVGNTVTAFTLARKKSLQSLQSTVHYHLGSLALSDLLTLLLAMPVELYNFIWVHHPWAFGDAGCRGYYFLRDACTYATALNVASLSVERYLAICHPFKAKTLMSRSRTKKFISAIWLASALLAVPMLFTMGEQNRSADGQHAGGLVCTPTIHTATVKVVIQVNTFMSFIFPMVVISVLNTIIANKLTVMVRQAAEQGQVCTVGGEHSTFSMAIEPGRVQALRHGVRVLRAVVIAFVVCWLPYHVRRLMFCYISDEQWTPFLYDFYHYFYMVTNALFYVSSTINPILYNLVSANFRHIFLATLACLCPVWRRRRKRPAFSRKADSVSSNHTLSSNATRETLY

[15] = NIH3T3 cell viability loss – ATP luminescence, mouse fibroblasts, counter-screen, dose response (AID 2010); assay type: functional, cell-based;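 also: cells exposed to compound for about 90 hours before reading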
[16] = Trypanosoma cruzi growth suppression in host cells – NIH3T3 host cells, beta-gal luminescence, confirmation (AID 2044); assay type: functional, cell-based;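 also: intracellular parasites grown in NIH/3T3 mouse fibroblasts as host cells; luminescent beta-galactosidase reporter signal from transgenic T. cruzi replicating inside host cells; inhibitors lower the luminescence signal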
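For AC50 in this document: cells exposed to compound for roughly 70 hours or longer before luminescence read.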

Chain of Polyadenylate-binding protein 1 (P11940 whole entry): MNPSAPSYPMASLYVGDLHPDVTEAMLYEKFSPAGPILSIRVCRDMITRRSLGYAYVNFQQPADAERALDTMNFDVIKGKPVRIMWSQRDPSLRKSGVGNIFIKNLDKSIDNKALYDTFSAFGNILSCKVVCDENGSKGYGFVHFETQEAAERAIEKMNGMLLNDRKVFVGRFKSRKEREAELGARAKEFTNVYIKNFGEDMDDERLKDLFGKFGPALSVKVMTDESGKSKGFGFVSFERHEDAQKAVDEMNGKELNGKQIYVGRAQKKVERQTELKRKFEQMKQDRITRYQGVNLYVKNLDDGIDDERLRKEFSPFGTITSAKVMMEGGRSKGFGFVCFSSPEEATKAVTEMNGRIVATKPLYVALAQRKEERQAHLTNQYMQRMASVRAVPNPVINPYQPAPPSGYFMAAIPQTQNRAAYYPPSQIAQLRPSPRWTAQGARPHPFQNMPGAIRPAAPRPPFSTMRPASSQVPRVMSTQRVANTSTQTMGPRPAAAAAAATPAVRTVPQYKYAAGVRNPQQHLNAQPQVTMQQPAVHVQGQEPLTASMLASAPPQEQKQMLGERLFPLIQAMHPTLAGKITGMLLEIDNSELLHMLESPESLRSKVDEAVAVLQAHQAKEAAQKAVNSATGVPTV

SMILES: O=C(Nc1ccc(F)cc1)C1CCCN1C(=O)Oc1ccccc1 (centres undefined)
- IC50 [1]: > 100 µM (inactive)
- IC50 [2]: > 100 µM (inactive)

SMILES: CN(C(=O)C1CCN(C(=O)c2cccs2)CC1)c1ccccc1
- IC50 [1]: > 100 µM (inactive)
- IC50 [2]: > 100 µM (inactive)

SMILES: COC(=O)c1c(NC(=O)c2cccc(F)c2)sc2c1CCC(C)C2 (centres undefined)
- IC50 [3]: > 20 µM (inactive)
- IC50 [4]: > 20 µM (inactive)
- IC50 [5]: > 20 µM (inactive)
- IC50 [6]: > 20 µM (inactive)

SMILES: c1ccc2c(-c3ccc(OCCN4CCCCC4)cc3)c(-c3ccsc3)sc2c1
- AC50 [7]: 1.27 µM (active)
- IC50 [8]: > 20 µM (inactive)
- EC50 [9]: > 69.8 µM (inactive)

SMILES: O=C1CCC/C(=N/NC(=O)c2sc3ccccc3c2Cl)C1
- EC50 [10]: 22 µM (active)
- EC50 [11]: 20.5 µM (active)
- IC50 [12]: 26.3 µM (not active)
- IC50 [13]: > 55.7 µM (not active)

SMILES: Oc1ccc(-c2cc(-c3ccc(O)cc3)nc(-c3ccccc3)n2)cc1
- EC50 [14]: 19.4 µM (active)
- EC50 [15]: > 60 µM (not active)
- EC50 [16]: 3.86 µM (active)
- AC50 [7]: 1.81 µM (active)
